From patent publication US7858619B2, “Substituted tetrahydroisochinolines as MMP inhibitors, related production method and use as medicine” (sanofi-aventis, priority 2005, dated 2010)
Converted amounts (≈) assume the structure as drawn. Where two headings read alike, the source gives them in different places.

Columns and labels:
Gelatinase B (MMP-9) = target: T1, Gelatinase B (MMP-9) (Homo sapiens, UniProt P14780); experiment: Catalytic inhibition of gelatinase B (MMP-9) in human serum (serum-based assay); assay type: biochemical
T1 construct: All the MMP-9 present in the samples (proMMP-9; active MMP-9 complexed or not complexed with the respective test substance) was isolated; from tissue; host or cells: freshly isolated human serum
Method: Freshly isolated human serum was shock-frozen in the desired volume in liquid N2 and then stored at −80° C. For the catalytic inhibition of MMP-9 in human serum, the appropriate parts by volume of human serum were thawed at room temperature. 100 parts by volume of undiluted, freshly thawed human serum were mixed with 1 part by volume of test substance, thoroughly mixed and incubated at 37° C. for 1 h. The test substances were dissolved in 100% dimethyl sulfoxide, and a 10 mM stock solution was prepared. For dose-effect plots, the test substances were tested in final concentrations of from […] to 0.001 μM for their catalytic inhibition of MMP-9 in human serum. The final concentration of DMSO in the reaction solution was 1% in each case.
Active MMP-9 from the reaction solutions described above was determined with the aid of a MMP-9 activity assay system (Amersham Pharmacia Biotech Europe GmbH).
After the incubation, one part by volume of the reaction mixture described above was diluted with 20 parts by volume of MMP-9 reaction buffer. The samples diluted in this way were transferred to a 96-well assay plate (Amersham Pharmacia Biotech Europe GmbH, Germany) coated with a specific MMP-9 antibody and incubated at 4° C. overnight. In addition, various concentrations of dissolved, recombinant human pro MMP-9 were likewise transferred onto the 96-well assay plate to construct the standard curve.
100 μl of the respective samples were employed per well. All the MMP-9 present in the samples (proMMP-9; active MMP-9 complexed or not complexed with the respective test substance) was isolated from the sample mixture by the specific MMP-9 antibody and bound to a solid matrix.
The immobilized MMP-9 samples were, after the incubation, washed 4× with 200 μl of washing buffer each time. Subsequently, proMMP-9 present was activated with 50 μl of APMA solution at 37° C. for 1.5 h.
The enzymic activity was measured by adding, after the incubation, 50 μl of detection reagent to each sample and mixing. The absorption of the assay plate charged in this way was measured immediately at 405 nm in an ELISA measuring instrument in order to fix time t=0. The assay plate was then incubated at 37° C. for 2 to 3 h and thereafter the absorption at 405 nm was measured.
Using the standard curve employed, the resulting measurements were converted as follows to the remaining, uninhibited active form of MMP-9 in ng/ml. • X=(Y−b)/m*20 • X=active MMP-9 in [ng/mL] • Y=measured absorption • b=intercept on y axis • m=gradient • 20=dilution factor
The inhibitory effect was calculated as percentage inhibition by the following formula: % inhibition=100−(X2*100/X1) • X1=active MMP-9 in [ng/ml] without test substance • X2=active MMP-9 in [ng/ml] with test substance
The IC50, the concentration of inhibitor which is necessary for 50% inhibition of the enzymic activity, was determined graphically by plotting the percentage inhibitions at various inhibitor concentrations.
The composition of the buffer solutions respectively employed was as follows:
Reaction buffer: • 50 mM Tris-HCl pH 7.6 • 1.5 mM NaCl • 0.5 mM CaCl2 • 1 μM ZnCl2 • 0.01% (v/v) BRIJ 35
Recombinant MMP-9 employed for standard: • 0; 0.5; 1.0; 2.0; 4.0; 8.0; 16.0 ng/ml
Washing buffer: • 0.01 M sodium phosphate buffer pH 7.0 • 0.05% Tween20
APMA solution: • 1 mM p-aminophenyl mercuric acetate • 50 mM Tris-HCl pH 7.6 • 1.5 mM NaCl • 0.5 mM CaCl2 • 1 μM ZnCl2 • 0.01% (v/v) BRIJ 35
Detection reagent: • Modified urokinase • S-2444 peptide substrate • 50 mM Tris-HCl pH 7.6 • 1.5 mM NaCl • 0.5 mM CaCl2 • 1 μM ZnCl2 • 0.01% (v/v) BRIJ 35

Protein binding (human) = assay type: in vitro ADME; details: plasma
[1] = Thermodynamic solubility in PBS buffer pH 7.4, CLND (chemoluminescent nitrogen detector); assay type: physicochemical; details: aqueous buffer, thermodynamic from solid, PBS buffer pH 7.4, room temperature
Method: The solution is then centrifuged at 14 000 rpm for 5 minutes. The solution is removed from the pellet and filtered through a syringe filter (0.45 μm pore size). The presence of a pellet is checked in order to ensure that a saturated solution was present. The filtered clear solution is analyzed by HPLC.
The dissolved amount of substance is quantified using a generic chromatographic method:
Either a calibration line derived from DMSO stock solutions (1-500 μM) of the appropriate substance is used to quantify the corresponding signal in the UV (254 nm) chromatogram of the solubility sample, or the quantification is undertaken via the peak area in the CLND trace. In the case of CLND quantification, caffeine is used as standard in a calibrating dilution.
The limit of quantitation is determined together with the calibration series. The limit of quantitation is normally 1-5 μM with UV detection, 5-10 μM with CLND quantification (depending on the number of nitrogen atoms in the molecule or the extinction coefficient of the molecule). If the intensity of the signal from the dissolved molecule is below the limit of quantitation, the result is reported as less than the limit of quantitation.
The clear solution after incubation for 16 hours is always measured as duplicates, once diluted 40-fold and once directly without dilution. The sample for which the signal is in the linear range of the calibration is used to determine the solubility.

[2] = carboxylic acid derivatives, read-out: MMP-9 activity
[3] = hydroxamic acid derivatives, read-out: MMP-9*

T1 sequence (P14780 107-707 limits assumed): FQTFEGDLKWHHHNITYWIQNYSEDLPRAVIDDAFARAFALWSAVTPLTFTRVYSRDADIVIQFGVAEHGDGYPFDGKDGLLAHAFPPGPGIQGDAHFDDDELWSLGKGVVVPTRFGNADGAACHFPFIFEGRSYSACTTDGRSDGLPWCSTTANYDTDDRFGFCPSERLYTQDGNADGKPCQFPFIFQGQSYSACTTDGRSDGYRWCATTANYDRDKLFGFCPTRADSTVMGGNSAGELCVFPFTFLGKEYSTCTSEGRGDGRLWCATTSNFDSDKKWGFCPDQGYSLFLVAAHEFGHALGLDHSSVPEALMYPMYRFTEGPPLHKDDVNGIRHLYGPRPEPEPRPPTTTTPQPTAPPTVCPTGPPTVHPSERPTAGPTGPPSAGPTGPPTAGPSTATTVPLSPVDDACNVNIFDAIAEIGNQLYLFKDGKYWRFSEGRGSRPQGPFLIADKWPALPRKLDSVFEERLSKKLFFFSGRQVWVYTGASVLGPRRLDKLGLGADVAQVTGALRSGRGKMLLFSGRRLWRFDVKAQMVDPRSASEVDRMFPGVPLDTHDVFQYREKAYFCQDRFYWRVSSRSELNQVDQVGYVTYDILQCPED

IC50 (Gelatinase B (MMP-9); [2]) [nM] | fraction unbound (Protein binding (human)) | solubility at 16 h [1] [µM] | IC50 (Gelatinase B (MMP-9); [3]) [nM] | SMILES
7500 | – | – | – | COc1ccc(Oc2ccc(S(=O)(=O)N3CCc4cc(OCCN5CCCCC5)ccc4C3C(=O)O)cc2)cc1 (stereo not shown) [Exemplary compound 14, 2-[4-(4-Methoxyphenoxy)benzenesulfonyl]-6-(2-piperidin-1-ylethoxy)-1,2,3,4-tetrahydroisoquinoline-1-carboxylic acid]
– | 0.002 | < 1 | 2500 | O=C(NO)C1c2ccccc2CCN1S(=O)(=O)c1ccc(Oc2ccc(F)cc2)cc1 (stereo not shown) [Comparative compound]
– | 0.011 | 16 (≈ 9.31 µg/mL) | 600 | COc1ccc(Oc2ccc(S(=O)(=O)N3CCc4cc(OCCN5CCCCC5)ccc4C3C(=O)NO)cc2)cc1 (stereo not shown) [Exemplary compound 13, 2-[4-(4-Methoxyphenoxy)benzenesulfonyl]-6-(2-piperidin-1-ylethoxy)-1,2,3,4-tetrahydroisoquinoline-1-carboxylic acid hydroxyamide]
– | 0.012 | 107 (≈ 61 µg/mL) | 200 | CCN(CC)CCOc1ccc2c(c1)CCN(S(=O)(=O)c1ccc(Oc3ccc(OC)cc3)cc1)C2C(=O)NO (stereo not shown) [Exemplary compound 15, 6-(2-Diethylaminoethoxy)-2-[4-(4-methoxyphenoxy)benzenesulfonyl]-1,2,3,4-tetrahydroisoquinoline-1-carboxylic acid hydroxyamide]
8700 | – | – | – | O=C(O)C1c2ccc(OCCN3CCCCC3)cc2CCN1S(=O)(=O)c1ccc(Oc2ccc(F)cc2)cc1 (stereo not shown) [Exemplary compound 2, 2-[4-(4-Fluorophenoxy)benzenesulfonyl]-6-(2-piperidin-1-ylethoxy)-1,2,3,4-tetrahydroisoquinoline-1-carboxylic acid]
> 100000 | – | – | – | O=C(O)C1c2ccccc2CCN1S(=O)(=O)c1ccc(Oc2ccc(F)cc2)cc1 (stereo not shown) [Comparative compound]
6600 | – | – | – | CCN(CC)CCOc1ccc2c(c1)CCN(S(=O)(=O)c1ccc(Oc3ccc(OC)cc3)cc1)C2C(=O)O (stereo not shown) [Exemplary compound 16, 6-(2-Diethylaminoethoxy)-2-[4-(4-methoxyphenoxy)benzenesulfonyl]-1,2,3,4-tetrahydroisoquinoline-1-carboxylic acid]
– | 0.01 | 23 (≈ 13.8 µg/mL) | 200 | CN1CCN(CCCOc2ccc3c(c2)CCN(S(=O)(=O)c2ccc(Oc4ccc(F)cc4)cc2)C3C(=O)NO)CC1 (stereo not shown) [Exemplary compound 3, 2-[4-(4-Fluorophenoxy)benzenesulfonyl]-6-[3-(4-methylpiperazin-1-yl)propoxy]-1,2,3,4-tetrahydroisoquinoline-1-carboxylic acid hydroxamide]
– | 0.061 | 153 (≈ 85.3 µg/mL) | 20 | CCN(CC)CCOc1ccc2c(c1)CCN(S(=O)(=O)c1ccc(Oc3ccc(F)cc3)cc1)C2C(=O)NO (stereo not shown) [Exemplary compound 9, 6-(2-Diethylaminoethoxy)-2-[4-(4-fluorophenoxy)benzenesulfonyl]-1,2,3,4-tetrahydroisoquinoline-1-carboxylic acid hydroxyamide]
